{"source": "patent EP0402733A2", "about": "“Agent for the treatment of central nervous system illnesses and for the enhancement of cerebral blood flow” (Dr. Karl Thomae GmbH, priority 1989, dated 1990)", "key": {"[1]": {"target": "muscarinische Rezeptoren der Pia mater des Rindes", "assay": "Inhibition of 3H-NMS binding to muscarinic receptors of bovine pia mater homogenate", "set-up": "species or system Rind", "details": "0,3 nM [³H]NMS, 45 min, room temperature", "procedure": "Die Pia-Gefäße von Rinder-Hirnen, erhalten vom lokalen Schlachthof, wurden präpariert und von Blutresten gereinigt. Je 0,5 g-Portionen wurden bei 8°C bis zur weiteren Verwendung gelagert. Zur Homogenatgewinnung wurden 0,5 g Pia-Geäße mittels eines Gewebehackers zerkleinert, in 60 ml HEPES-Puffer (20 mM HEPES, 10 mM MgCl₂, 100 mM NaCl, pH 7,50) aufgenommen, mit einem Ultra-Turrax homogenisiert und 20 min. bei 0°C mit 48000 x g zentrifugiert. Das Pellet wurde erneut mit einem Ultra-Turrax homogenisiert, durch Mull filtriert und mit HEPES-Puffer auf eine Verdünnung von 1:140 bezogen auf das Feuchtgewicht der Gefäße verdünnt.\n0,3 nM [³H]NMS und steigende Konzentrationen des Antagonisten wurden mit dem Homogenat in einem Gesamtvolumen von 0,52 ml für 45 min. bei Raumtemperatur inkubiert. Der Inkubationsansatz wurde mit Hilfe eines Scatron Cell Harvesters über Glasfaser-Filtermatten filtriert und zweimal mit eiskalter physiologischer Kochsalzlösung gewaschen. Die Filter-gebundene Radioaktivität wurde in einem Flüssigkeitsszintillationszähler bestimmt. Als unspezifische Bindung wurde die gebundene Radioaktivität in Gegenwart von 10⁻⁶M (-)-Chinuclidinyl-benzilat definiert."}, "[2]": {"tested_on": "inhibitorischen Autorezeptoren in hippocampalem Gewebe", "assay": "Transmitter release study: in vitro acetylcholine release from electrically stimulated hippocampal slices, antagonism of carbachol", "type": "biochemical, Ratten", "source_text": "Die Versuche zur in-vitro Freisetzung von Acetylcholin aus hippocampalen Gewebeschnitten wurden in Analogie zu Anordnungen durchgeführt, die für die Freisetzung von 5-HT aus Hypothalamus- bzw. Hippocampus-Gewebe beschrieben sind (vgl. M.H. Richards, Naunyn Schmiedeberg's Arch. Pharmacol. 329, 359-366 (1985) und T.J. Feuerstein, G. Hertting und R. Jackisch, Europ. J. Pharmacol. 107, 233-242 (1985)).\nMännliche Ratten (Stamm Chbb:Thom, Gewicht 200 bis 300 g) wurden ohne Vorbehandlung dekapitiert; das gesamte Gehirn wurde sofort entnommen und unter Eiskühlung zerlegt. Gemäß den oben beschriebenen Verfahren wurde der Hippocampus in 0,4 mm dicke Schnitte mit Hilfe eines McIlwain-Gewebehackers geschnitten. Die Gewebeschnitte wurden 30 Minuten lang bei 37°C vorincubiert in Gegenwart von 0,05 mM ³H-Cholin in einem Krebs-Henseleit Puffer der folgenden Zusammensetzung: 120 mM NaCl, 4,8 mM KCl, 1,3 mM CaCl₂, 1,2 mM KH₂PO₄, 1,2 mM MgSO₄ und 25 mM NaHCO₃. Der Puffer enthielt zusätzlich 2 g Glucose und 100 mg EDTA. Der Puffer wurde mit Natronlauge auf einen pH-Wert von 7,4 bei 20°C eingestellt. Alle Lösungen wurden kontinuierlich mit 95 % O₂ und 5 % CO₂ gesättigt. Die Gewebeschnitte wurden daraufhin gespült, jeder Gewebeschnitt wurde jeweils willkürlich auf 12 Superfusionseinheiten verteilt und mit dem Puffer bei 37°C bei einer Fließgeschwindigkeit von 1 ml/min überspült. […]"}, "[3]": {"target": "T1, muscarinischen Rezeptoren des Cortex (Rezeptoren vom M₁-Subtyp) (Rattus norvegicus, UniProt P08482)", "T1 sequence (P08482 1-460)": "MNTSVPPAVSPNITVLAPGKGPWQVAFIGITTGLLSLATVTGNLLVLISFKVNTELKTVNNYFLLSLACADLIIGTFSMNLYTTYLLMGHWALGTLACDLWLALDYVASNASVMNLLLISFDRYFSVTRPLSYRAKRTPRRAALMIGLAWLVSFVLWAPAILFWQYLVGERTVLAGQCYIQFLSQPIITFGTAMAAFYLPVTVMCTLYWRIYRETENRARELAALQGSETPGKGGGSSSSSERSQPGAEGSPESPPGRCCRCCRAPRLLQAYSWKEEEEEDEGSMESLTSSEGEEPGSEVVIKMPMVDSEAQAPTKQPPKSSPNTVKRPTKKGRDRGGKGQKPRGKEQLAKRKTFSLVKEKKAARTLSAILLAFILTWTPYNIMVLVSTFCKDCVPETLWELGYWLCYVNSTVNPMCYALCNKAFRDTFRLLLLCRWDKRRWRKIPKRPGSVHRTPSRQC", "assay": "3H-NMS binding study at muscarinic receptors of the cortex (cerebral cortex homogenate)", "set-up": "species or system Sprague-Dawley-Ratten", "details": "0,3 nM ³H-NMS, Großhirnrinde homogenate 1:3000, 30°C, 45 min", "source_text": "Als Organspender dienten männliche Sprague-Dawley-Ratten mit 180-220 g Körpergewicht. Nach Entnahme der Großhirnrinde wurden alle weiteren Schritte in eiskaltem Hepes-HCl-Puffer (pH 7,4; 100 m molar NaCl, 10 m molar MgCl₂) vorgenommen. Das Gesamtherz wurde mit einer Schere zerkleinert. Alle Organe wurden abschließend in einem Potter homogenisiert.\nFür den Bindungstest wurden die Organhomogenate in folgender Weise verdünnt:\nDie Inkubation der Organhomogenate erfolgte bei einer bestimmten Konzentration des Radioliganden und einer Konzentrationsreihe der nichtradioaktiven Testsubstanzen im Eppendorf-Zentrifugenröhrchen bei 30°C. Die Inkubationsdauer betrug 45 Minuten. Als Radioligand wurde 0,3 n molar ³H-N-Methylscopolamin (³H-NMS) verwendet. Die Inkubation wurde durch Zugabe von eiskaltem Puffer mit nachfolgender Vakuumfiltration beendet. Die Filter wurden mit kaltem Puffer gespült und ihre Radioaktivität bestimmt. Sie repräsentiert die Summe von spezifischer und unspezifischer Bindung von ³H-NMS. Der Anteil der unspezifischen Bindung wurde defi niert als jene Radioaktivität, die in Anwesenheit von 1 µ molar Chinuclidinylbenzilat gebunden wurde. Es wurden immer Vierfachbestimmungen vorgenommen. Die IC₅₀-Werte der nichtmarkierten Testsubstanzen wurden graphisch bestimmt. […]"}}}
{"smiles": "CCN(CCCC(=O)N1CCC(C(=O)N(C)C)CC1)C(C)Cc1ccc(OC)cc1", "note": "(racemic) [Substanz I, (±)-1-[4-[Ethyl[2-(4-methoxyphenyl)-1-methylethyl]amino]-1-oxobutyl]-N,N-dimethyl-4-piperidincarboxamid]", "values": [{"measurement": "-log IC₅₀ (M)", "setting": "[1]", "result": "8,2"}, {"measurement": "ACh-Release am Hippocampus-Gewebe (pA₂)", "setting": "[2]; rat hippocampal slices, electrical stimulation, agonist Carbachol", "result": "8,7"}, {"measurement": "Verhältnis von IC₅₀ (Cortex) zu pA₂(ACh-Release)", "setting": "[2]; selectivity ratio: cortex (M₁) binding versus ACh release in hippocampus", "result": 25}, {"measurement": "Rezeptor-Bingungstests Cortex -log IC₅₀ (M)", "setting": "[3]", "result": "7,3"}]}
